Data reported in ChEMBL document CHEMBL1201862, “PubChem BioAssay data set” (2004).
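Values below derive from 48-hour exposures of cells grown in 96-well plates, with endpoints linearly interpolated between the two concentrations bracketing the appropriate inhibition level. The concentration for 50% growth inhibition is given as GI50.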 Calls of active or inactive are those of the source. Cut-off read from the data, not from the text of the source: active = GI50 up to about 1.1 µM and inactive = higher.

How the values were obtained:
Assay in all cases: NCI-60 cell line screen, 48 h
CCRF-CEM = system: CCRF-CEM
COLO 205 = system: COLO 205
HL-60 = system: HL-60
KM12 = system: KM12
M14 = system: M14
MOLT-4 = system: MOLT-4
NCI-H460 = system: NCI-H460
OVCAR-4 = system: OVCAR-4
OVCAR-8 = system: OVCAR-8
RXF 393 = system: RXF 393
SNB-78 = system: SNB-78
SR = system: SR
SW-620 = system: SW-620
TK-10 = system: TK-10
UO-31 = system: UO-31
A498 = system: A498

Measured: GI50

C[s+]1c2ccccc2c2ccccc21
inactive: CCRF-CEM > 100 µM | COLO 205 > 100 µM | HL-60 > 100 µM | KM12 > 100 µM | M14 > 100 µM | MOLT-4 > 100 µM | NCI-H460 > 100 µM | OVCAR-4 > 100 µM | OVCAR-8 > 100 µM | RXF 393 > 100 µM | SNB-78 > 100 µM | SR 92.5 µM | SW-620 > 100 µM | TK-10 > 100 µM | UO-31 34.2 µM

COc1cc(OC)c(Oc2cccc(OC)c2OC)c(OC)c1
inactive: A498 > 100 µM | CCRF-CEM > 100 µM | COLO 205 > 100 µM | KM12 > 100 µM | M14 > 100 µM | MOLT-4 > 100 µM | NCI-H460 > 100 µM | OVCAR-4 > 100 µM | OVCAR-8 > 100 µM | SNB-78 > 100 µM | SR > 100 µM | SW-620 > 100 µM | TK-10 > 100 µM | UO-31 > 100 µM

N=C(N)NS(=O)(=O)c1ccc(NC(=O)c2cccc3c(Nc4ccc(S(=O)(=O)N=C(N)N)cc4)c4ccccc4nc23)cc1
inactive: A498 47.4 µM | CCRF-CEM 43.9 µM | COLO 205 31.3 µM | HL-60 27 µM | KM12 33.4 µM | M14 50.8 µM | MOLT-4 35.7 µM | NCI-H460 > 100 µM | OVCAR-4 26.6 µM | OVCAR-8 32.3 µM | RXF 393 99.1 µM | SNB-78 24.8 µM | SW-620 31.4 µM | TK-10 52 µM | UO-31 > 100 µM

CCN(CC)CCC(=O)NC1c2ccccc2Oc2c(C)cccc21 (centres undefined)
inactive: CCRF-CEM > 100 µM | COLO 205 > 100 µM | HL-60 > 100 µM | M14 > 100 µM | MOLT-4 > 100 µM | NCI-H460 > 100 µM | OVCAR-4 > 100 µM | OVCAR-8 > 100 µM | RXF 393 > 100 µM | SNB-78 > 100 µM | SR > 100 µM | SW-620 > 100 µM | TK-10 > 100 µM | UO-31 63.7 µM

CC1=C(C(=O)CC(=O)C(=O)Nc2ccc(Cl)cc2C)Sc2ccccc2N1
inactive: A498 > 100 µM | CCRF-CEM > 100 µM | COLO 205 > 100 µM | HL-60 > 100 µM | KM12 > 100 µM | M14 > 100 µM | MOLT-4 > 59.6 µM | NCI-H460 > 100 µM | OVCAR-4 > 100 µM | OVCAR-8 > 100 µM | RXF 393 > 100 µM | SNB-78 > 100 µM | SW-620 > 100 µM | TK-10 > 100 µM | UO-31 > 100 µM

Cc1ccccc1NC(=O)C(=O)CC(=O)C1CCOC1=O (centres undefined)
inactive: A498 > 100 µM | CCRF-CEM > 100 µM | COLO 205 > 100 µM | HL-60 > 100 µM | KM12 > 100 µM | M14 > 100 µM | NCI-H460 > 100 µM | OVCAR-4 > 100 µM | OVCAR-8 > 100 µM | RXF 393 > 100 µM | SNB-78 > 100 µM | SW-620 > 100 µM | TK-10 > 100 µM | UO-31 > 100 µM

COC(=O)c1nc(NN)cc(O)c1CCCCCc1c(O)nc(NN)nc1C(=O)OC
inactive: A498 > 100 µM | CCRF-CEM > 100 µM | COLO 205 > 77.8 µM | HL-60 > 100 µM | KM12 > 100 µM | M14 > 100 µM | MOLT-4 > 100 µM | NCI-H460 > 100 µM | OVCAR-4 > 100 µM | OVCAR-8 > 100 µM | RXF 393 > 100 µM | SNB-78 > 100 µM | SW-620 > 59.3 µM | TK-10 > 100 µM | UO-31 > 100 µM

O=C(NCCCC/N=c1/cccccc1NCCCCNC(=O)OCc1ccccc1)OCc1ccccc1
inactive: A498 > 10 µM | CCRF-CEM 16.6 µM | HL-60 13.2 µM | KM12 17.9 µM | M14 14.5 µM | MOLT-4 15.3 µM | NCI-H460 11.5 µM | OVCAR-4 18.9 µM | OVCAR-8 18.9 µM | RXF 393 17.8 µM | SNB-78 24.6 µM | SW-620 17 µM | TK-10 19.2 µM | UO-31 7.43 µM

CC(C)(C)[Si](Nc1ccccc1)(c1ccccc1)c1ccccc1
inactive: A498 17.3 µM | CCRF-CEM 16 µM | COLO 205 15.3 µM | HL-60 13.6 µM | KM12 13.9 µM | M14 14 µM | MOLT-4 10.1 µM | NCI-H460 18.4 µM | OVCAR-4 13.9 µM | OVCAR-8 17.7 µM | RXF 393 13.6 µM | SNB-78 16.4 µM | SW-620 17.4 µM | TK-10 14.5 µM | UO-31 5.79 µM

OCC1OC2c3ccccc3COC2C1OCc1ccccc1 (centres undefined)
inactive: COLO 205 > 100 µM | KM12 > 100 µM | M14 > 100 µM | MOLT-4 > 100 µM | NCI-H460 > 100 µM | OVCAR-4 > 100 µM | OVCAR-8 > 100 µM | RXF 393 > 100 µM | SNB-78 > 100 µM | SR > 100 µM | SW-620 > 100 µM | TK-10 > 100 µM | UO-31 > 100 µM
